Assay results: patent publication US4119710A, “Bronchospasmolytic 1-(p-amino-phenyl)-2-amino-ethanols-(1) and salts” (Boehringer Ingelheim GmbH, priority 1972, dated 1978)
Counter-ions that a name gives are not always drawn. Like-named read-outs stand apart in the source and are kept apart here.

Legend:
[1] = target: T1, β1 -receptors (Felis catus, UniProt Q9TST6); test: β1-blocking activity: antagonism to tachycardia provoked by N-isopropyl-noradrenalin sulfate in anesthetized cats; type: in vivo; details: cat, iv
T1 construct: tested on anesthetized cats; from tissue; host or cells: living anesthetized cat, heart (heart rate)
Method: (§1) The compounds of this invention were tested for toxicity and with regard to their action on the β-receptors in warm-blooded animals, such as cats and guinea pigs, by the methods described below, and the following test results were obtained for representative species of the genus, where
The β1 -blocking activity was tested on anesthetized cats as antagonism to tachycardia provoked by a standard dose of 1.0 γ/kg i.v. of N-isopropyl-noradrenalin sulfate. From the average percentage reduction in heart rate acceleration caused by N-isopropyl-noradrenalin sulfate, obtained by various doses of the test compound in question, a median effective dose (ED50) was determined by graphic extrapolation (see Tables II and III).

[2] = acute toxicity in mice (LD50, Litchfield and Wilcoxon); details: mouse, in vivo, iv, groups of 10, i.v.
Method: as §1
The acute toxicity of the compounds was determined on groups of 10 mice.

[3] = target: T2, β2 -receptors (Cavia porcellus, UniProt Q8K4Z4); test: β2-mimetic activity: antagonism to acetylcholine bronchospasm in anesthetized guinea pigs (Konzett-Rossler); type: in vivo; details: for ED50: guinea pig, iv, bronchospasm by 20 γ/kg acetylcholine i.v., test compound i.v., graphic extrapolation (Table I); for Duration of activity (β2 -mimetic activity): i.v. (Table I)
T2 construct: tested on anesthetized guinea pigs; from tissue; host or cells: living anesthetized guinea pig, airways (Konzett-Rossler)
Method: as §1
The β2 -mimetic activity was tested on anesthetized guinea pigs as antagonism to bronchospasm provoked by intravenous administration of 20 γ of acetylcholine per kg body weight (according to the method of Konzett-Rossler) by intravenous administration of the test compound. From the average percentage decrease of the bronchospasm produced by various doses of the test compound, a median effective dose (ED50) was determined by graphic extrapolation (see Table I).

[4] = target: T2, β2 -receptors; test: β2-blocking activity: antagonism to broncholytic activity of N-isopropyl-noradrenalin sulfate in anesthetized guinea pigs (Konzett-Rossler); type: in vivo; details: guinea pig, iv, d(+)-isomers, 5 γ/kg i.v. N-isopropyl-noradrenalin sulfate after 20 γ/kg i.v. acetylcholine (Table III), read-out: Blocking Action on β2 -receptors ED50
Method: as §1
The β2 -blocking activity was tested on anesthetized guinea pigs as antagonism to the broncholytic activity which is observed upon administration of 5 γ/kg body weight i.v. of N-isopropyl-noradrenalin sulfate in the test arrangement according to Konzett-Rossler, following the inducement of a bronchospasm caused by a standard dose of 20 γ/kg body weight i.v. of acetylcholine (see Table III).

[5] = tachycardia by 1.0 γ/kg i.v. N-isopropyl-noradrenalin sulfate, graphic extrapolation (Table II), read-out: Blocking action on the β1 -receptors ED50
[6] = deaths within 14 days (Table II), read-out: LD50
[7] = d(+)-isomers, tachycardia by 1.0 γ/kg i.v. N-isopropyl-noradrenalin sulfate (Table III), read-out: Blocking Action on β1 -receptors ED50
[8] = deaths within 14 days, d(+)-isomers (Table III), read-out: acute toxicity LD50 (Table III)

T2 sequence (Q8K4Z4 whole entry): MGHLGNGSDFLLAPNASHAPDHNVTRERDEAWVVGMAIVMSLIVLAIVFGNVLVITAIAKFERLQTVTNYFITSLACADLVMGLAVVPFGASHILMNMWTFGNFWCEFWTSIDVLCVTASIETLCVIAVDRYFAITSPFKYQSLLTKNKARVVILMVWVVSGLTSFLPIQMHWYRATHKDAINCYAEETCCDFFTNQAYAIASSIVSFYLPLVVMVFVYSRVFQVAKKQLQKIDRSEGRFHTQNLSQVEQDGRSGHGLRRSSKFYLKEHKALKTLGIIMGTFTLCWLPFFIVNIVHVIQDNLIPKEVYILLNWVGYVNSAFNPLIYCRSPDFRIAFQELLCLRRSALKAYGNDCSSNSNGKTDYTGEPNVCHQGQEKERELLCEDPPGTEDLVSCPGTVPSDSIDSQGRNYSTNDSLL
T1 sequence (Q9TST6 whole entry): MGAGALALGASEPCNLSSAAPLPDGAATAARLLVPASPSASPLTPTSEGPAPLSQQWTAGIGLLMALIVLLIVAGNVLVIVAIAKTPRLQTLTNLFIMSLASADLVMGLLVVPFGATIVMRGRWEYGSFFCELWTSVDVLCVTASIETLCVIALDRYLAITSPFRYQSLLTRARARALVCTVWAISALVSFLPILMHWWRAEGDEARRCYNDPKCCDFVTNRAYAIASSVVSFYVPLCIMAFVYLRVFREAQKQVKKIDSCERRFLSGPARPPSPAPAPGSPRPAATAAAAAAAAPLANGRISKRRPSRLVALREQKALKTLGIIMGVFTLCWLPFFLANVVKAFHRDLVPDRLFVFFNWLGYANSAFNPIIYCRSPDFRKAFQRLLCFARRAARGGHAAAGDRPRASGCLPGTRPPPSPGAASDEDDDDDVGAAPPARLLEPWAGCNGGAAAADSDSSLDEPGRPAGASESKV

CC(C)(C)NCC(O)c1cc(Cl)c(N)c([N+](=O)[O-])c1 (stereo not shown) [Z, 1-(4'-amino-3'-chloro-5'-nitro-phenyl)-2-tert.butylamino-ethanol]
ED50 [1, 5]: 0.0045 mg/kg
LD50 at 336 h [2, 6]: 42.4 mg/kg
ED50 [3]: 0.0315 mg/kg
Duration of activity (β2 -mimetic activity) [3]: > 80 min

CC(C)(C)NCC(O)c1cc(F)c(N)c(Cl)c1 (single isomer, unassigned) [D-d(+), d-1-(4'-Amino-3'-chloro-5'-fluoro-phenyl)-2-tert.butylamino-ethanol]
ED50 [1, 7]: 0.0062 mg/kg
LD50 at 336 h [2, 8]: 34.2 mg/kg
ED50 [4]: > 2 mg/kg

CC(C)(C)NCC(O)c1cc(Br)c(N)c(C#N)c1.Cl (stereo not shown) [J, 1-(4'-amino-3'-bromo-5'-cyano-phenyl)-2-tert.butylamino-ethanol hydrochloride]
LD50 at 336 h [2, 6]: 67 mg/kg
ED50 [3]: 0.0048 mg/kg
Duration of activity (β2 -mimetic activity) [3]: > 40 min

CC(C)(C)N1COC(c2cc(F)c(N)c(Br)c2)C1.Cl.Cl (stereo not shown) [B, 5-(4'-amino-3'-bromo-5'-fluoro-phenyl)-3-tert.butyloxazolidine dihydrochloride]
LD50 at 336 h [2, 6]: 27.2 mg/kg
ED50 [3]: 0.0067 mg/kg
Duration of activity (β2 -mimetic activity) [3]: > 110 min

CC(C)(C)NCC(O)c1ccc(N)c(F)c1 (single isomer, unassigned) [E-d(+), d-1-(4'-amino-3'-fluoro-phenyl)-2-tert.butylamino-ethanol hydrochloride]
ED50 [1, 7]: 0.0015 mg/kg
ED50 [4]: > 2 mg/kg

CC(C)(C)NCC(O)c1cc(F)c(N)c(Br)c1 (single isomer, unassigned) [A-d(+), d-1-(4'-amino-3'-bromo-5'-fluoro-phenyl)-2-tert.butylamino-ethanol hydrochloride]
ED50 [1, 7]: 0.0084 mg/kg
LD50 at 336 h [2, 8]: 37.2 mg/kg
ED50 [4]: > 2 mg/kg

Cl.N#Cc1cc(C(O)CNC2CCCC2)cc(Cl)c1N (stereo not shown) [U, 1-(4'-amino-3'-chloro-5'-cyano-phenyl)-2-cyclopentylamino-ethanol hydrochloride]
ED50 [1, 5]: 0.0007 mg/kg
LD50 at 336 h [2, 6]: 39.1 mg/kg
ED50 [3]: 0.0098 mg/kg
Duration of activity (β2 -mimetic activity) [3]: > 50 min

CC(C)(C)NCC(O)c1cc(C#N)c(N)c(C#N)c1.Cl (stereo not shown) [X, 1-(4'-amino-3',5'-dicyano-phenyl)-2-tert.butylamino-ethanol hydrochloride]
ED50 [1, 5]: 0.00092 mg/kg
LD50 at 336 h [2, 6]: 166 mg/kg
ED50 [3]: 0.0113 mg/kg
Duration of activity (β2 -mimetic activity) [3]: > 65 min

Cl.Nc1c(F)cc(C(O)CNC2CCC2)cc1Br (stereo not shown) [K, 1-(4'-amino-3'-bromo-5'-fluoro-phenyl)-2-cyclobutylamino-ethanol hydrochloride]
ED50 [1, 5]: 0.0015 mg/kg
LD50 at 336 h [2, 6]: 26.4 mg/kg
ED50 [3]: 0.058 mg/kg
Duration of activity (β2 -mimetic activity) [3]: > 50 min

CC(C)(C)NCC(O)c1cc(F)c(N)c(Br)c1.Cl (stereo not shown) [A, 1-(4'-amino-3'-bromo-5'-fluoro-phenyl)-2-tert.butylamino-ethanol hydrochloride]
ED50 [1, 5]: 0.0185 mg/kg
LD50 at 336 h [2, 6]: 34.5 mg/kg
ED50 [3]: 0.0083 mg/kg
Duration of activity (β2 -mimetic activity) [3]: > 150 min

CC(C)(C)NCC(O)c1ccc(N)c(F)c1.Cl (stereo not shown) [E, 1-(4'-amino-3'-fluoro-phenyl)-2-tert.butylamino-ethanol hydrochloride]
ED50 [1, 5]: 0.0135 mg/kg
LD50 at 336 h [2, 6]: 69.2 mg/kg
ED50 [3]: 0.018 mg/kg
Duration of activity (β2 -mimetic activity) [3]: > 80 min

CCCNCC(O)c1cc(Cl)c(N)c(C#N)c1.Cl (stereo not shown) [Q, 1-(4'-amino-3'-chloro-5'-cyano-phenyl)-2-propylamino-ethanol hydrochloride]
ED50 [1, 5]: 0.00076 mg/kg
LD50 at 336 h [2, 6]: 53.4 mg/kg
ED50 [3]: 0.027 mg/kg
Duration of activity (β2 -mimetic activity) [3]: 50 min

CC(C)(C)NCC(O)c1cc(F)c(N)c(Cl)c1.Cl (stereo not shown) [D, 1-(4'-amino-3'-chloro-5'-fluoro-phenyl)-2-tert.butylamino-ethanol hydrochloride]
ED50 [1, 5]: 0.008 mg/kg
LD50 at 336 h [2, 6]: 35.1 mg/kg
ED50 [3]: 0.019 mg/kg
Duration of activity (β2 -mimetic activity) [3]: > 120 min

Cl.Nc1c(F)cc(C(O)CNC2CC2)cc1Cl (stereo not shown) [C, 1-(4'-amino-3'-chloro-5'-fluoro-phenyl)-2-cyclopropylamino-ethanol hydrochloride]
ED50 [1, 5]: 0.014 mg/kg
LD50 at 336 h [2, 6]: 57 mg/kg
ED50 [3]: 0.024 mg/kg
Duration of activity (β2 -mimetic activity) [3]: > 50 min

CC(C)(C)NCC(O)c1cc(Br)c(N)c([N+](=O)[O-])c1 (stereo not shown) [Y, 1-(4'-amino-3'-bromo-5'-nitro-phenyl)-2-tert.butylamino-ethanol]
ED50 [1, 5]: 0.0028 mg/kg
LD50 at 336 h [2, 6]: 35.8 mg/kg

CC(C)(C)NCC(O)c1cc(Cl)c(N)c(C#N)c1 (stereo not shown) [I, 1-(4'-amino-3'-chloro-5'-cyano-phenyl)-2-tert.butylamino-ethanol]
ED50 [1, 5]: 0.00074 mg/kg
LD50 at 336 h [2, 6]: 60 mg/kg
ED50 [3]: 0.0002 mg/kg
Duration of activity (β2 -mimetic activity) [3]: > 95 min

CCC(C)(C)NCC(O)c1ccc(N)c(C#N)c1 (stereo not shown) [P, 1-(4'-amino-3'-cyano-phenyl)-2-tert.pentylamino-ethanol]
LD50 at 336 h [2, 6]: 62 mg/kg
ED50 [3]: 0.0036 mg/kg
Duration of activity (β2 -mimetic activity) [3]: 65 min

Br.CCC(C)(C)NCC(O)c1ccc(N)c(C(F)(F)F)c1 (stereo not shown) [F, 1-(4'-amino-3'-trifluoromethyl-phenyl)-2-tert.pentylamino-ethanol hydrobromide]
ED50 [1, 5]: 0.035 mg/kg

CCC(C)NCC(O)c1cc(Cl)c(N)c(C#N)c1.Cl (stereo not shown) [R, 1-(4'-amino-3'-chloro-5'-cyano-phenyl)-2-sec.butylamino-ethanol hydrochloride]
ED50 [1, 5]: 0.00032 mg/kg
LD50 at 336 h [2, 6]: 40.4 mg/kg
ED50 [3]: 0.0057 mg/kg
Duration of activity (β2 -mimetic activity) [3]: > 80 min

CC(C)(C)NCC(O)c1cc(Cl)c(N)c(C(F)(F)F)c1 (stereo not shown) [G, 1-(4'-amino-3'-chloro-5'-trifluoromethyl-phenyl)-2-tert.butylamino-ethanolhydrochloride]
ED50 [1, 5]: 0.0115 mg/kg
LD50 at 336 h [2, 6]: 36.5 mg/kg
ED50 [3]: 0.0195 mg/kg
Duration of activity (β2 -mimetic activity) [3]: > 130 min

CCC(C)(C)NCC(O)c1cc(Cl)c(N)c(C#N)c1.Cl (stereo not shown) [T, 1-(4'-amino-3'-chloro-5'-cyano-phenyl)-2-tert.pentylamino-ethanol hydrochloride]
ED50 [1, 5]: 0.00045 mg/kg
LD50 at 336 h [2, 6]: 33.7 mg/kg
ED50 [3]: 0.0019 mg/kg
Duration of activity (β2 -mimetic activity) [3]: > 40 min

Nc1c(Cl)cc(C(O)CNC2CCC2)cc1C(F)(F)F (stereo not shown) [H, 1-(4'-amino-3'-chloro-5'-trifluoromethyl-phenyl)-2-cyclobutylamino-ethanolhydrochloride]
LD50 at 336 h [2, 6]: 36.3 mg/kg
ED50 [3]: 0.0068 mg/kg
Duration of activity (β2 -mimetic activity) [3]: > 125 min

CC(C)(C)NCC(O)c1cc(F)c(N)c(C#N)c1.Cl (stereo not shown) [N, 1-(4'-amino-3'-fluoro-5'-cyano-phenyl)-2-tert.butylamino-ethanol hydrochloride]
LD50 at 336 h [2, 6]: 58.4 mg/kg
ED50 [3]: 0.00032 mg/kg
Duration of activity (β2 -mimetic activity) [3]: > 40 min

CC(C)(CO)NCC(O)c1cc(Cl)c(N)c(C#N)c1 (stereo not shown) [S, 1-(4'-amino-3'-chloro-5'-cyano-phenyl)-2-(hydroxy-tert.butylamino)-ethanolhydrochloride]
ED50 [1, 5]: 0.00076 mg/kg
LD50 at 336 h [2, 6]: 81.8 mg/kg
ED50 [3]: 0.01 mg/kg
Duration of activity (β2 -mimetic activity) [3]: > 65 min

CC(C)NCC(O)c1cc(F)c(N)c(C#N)c1.Cl (stereo not shown) [M, 1-(4'-amino-3'-fluoro-5'-cyano-phenyl)-2-isopropylamino-ethanol hydrochloride]
ED50 [1, 5]: 0.00027 mg/kg
LD50 at 336 h [2, 6]: 66.4 mg/kg
Duration of activity (β2 -mimetic activity) [3]: > 40 min

CC(Cc1ccc2c(c1)OCO2)NCC(O)c1cc(Cl)c(N)c(C#N)c1 (stereo not shown) [V, 1-(4'-amino-3'-chloro-5'-cyano-phenyl)-2-[1"-(3,4-methylenedioxy-phenyl)-2"-propylamino]-ethanol hydrochloride]
ED50 [1, 5]: 0.0014 mg/kg
LD50 at 336 h [2, 6]: 13.5 mg/kg
ED50 [3]: 0.0027 mg/kg
Duration of activity (β2 -mimetic activity) [3]: > 65 min

Br.N#Cc1cc(C(O)CNC2CCC2)ccc1N (stereo not shown) [O, 1-(4'-amino-3'-cyano-phenyl)-2-cyclobutylamino-ethanol hydrobromide]
LD50 at 336 h [2, 6]: 61.8 mg/kg
ED50 [3]: 0.0069 mg/kg
Duration of activity (β2 -mimetic activity) [3]: 40 min

Cl.N#Cc1cc(C(O)CNC2CCC2)cc(Br)c1N (stereo not shown) [W, 1-(4'-amino-3'-bromo-5'-cyano-phenyl)-2-cyclobutylamino-ethanol hydrochloride]
LD50 at 336 h [2, 6]: 38.5 mg/kg
ED50 [3]: 0.0205 mg/kg
Duration of activity (β2 -mimetic activity) [3]: > 50 min

Cl.Nc1c(F)cc(C(O)CNC2CC2)cc1I (stereo not shown) [L, 1-(4'-amino-3'-fluoro-5'-iodo-phenyl)-2-cyclopropylamino-ethanol hydrochloride]
ED50 [1, 5]: 0.0013 mg/kg
LD50 at 336 h [2, 6]: 45.2 mg/kg
